Laboratory results published in patent US12577239B2, “Sulfilimines or sulfoximines containing fungicidal heterocyclic compounds” (PI INDUSTRIES LTD., priority 2019, dated 2026).

System: Phytophthora infestans
Assay: microbe, parasite or virus in culture
Assay type: cell-based
Settings: 168 h, read-out: control compared to the untreated check

| SMILES | inhibition of growth at 30 ppm [%] |
| --- | --- |
| CS(=N)(=O)c1cccc(Cl)c1C1CC(c2csc(C3CCN(C(=O)Cn4cc(Cl)cc(C(F)(F)F)c4=O)CC3)n2)=NO1 (centres unmarked) [Compound 1, 5-chloro-1-(2-(4-(4-(5-(2-chloro-6-(S-methylsulfonimidoyl)phenyl)-4,5-dihydroisoxazol-3-yl)thiazol-2-yl)piperidin-1-yl)-2-oxoethyl)-3-(trifluoromethyl)pyridin-2(1H)-one] | ≥ 70 |
| CS(=N)(=O)c1cccc(Cl)c1C1CC(c2csc(C3CCN(C(=O)Cn4cc(C(F)(F)F)cc(Cl)c4=O)CC3)n2)=NO1 (centres unmarked) [Compound 2, 3-chloro-1-(2-(4-(4-(5-(2-chloro-6-(S-methylsulfonimidoyl)phenyl)-4,5-dihydroisoxazol-3-yl)thiazol-2-yl)piperidin-1-yl)-2-oxoethyl)-5-(trifluoromethyl)pyridin-2(1H)-one] | ≥ 70 |
| CS(=N)(=O)c1cccc(Cl)c1C1CC(c2csc(C3CCN(C(=O)Cn4nc(C(F)F)cc4C(F)F)CC3)n2)=NO1 (centres unmarked) [Compound 3, (2-(3-(2-(1-(2-(3,5-bis (difluoromethyl)-1H-pyrazol-1-yl)acetyl)piperidin-4-yl)thiazol-4-yl)-4,5-dihydroisoxazol-5-yl)-3-chlorophenyl) (imino) (methyl)-λ^6-sulfanone] | ≥ 70 |
| Cc1cc(C(F)(F)F)nn1CC(=O)N1CCC(c2nc(C3=NOC(c4c(F)cccc4N=S(C)(C)=O)C3)cs2)CC1 (centres unmarked) [Compound 6, ((3-fluoro-2-(3-(2-(1-(2-(5-methyl-3-(trifluoromethyl)-1H-pyrazol-1-yl)acetyl)piperidin-4-yl)thiazol-4-yl)-4,5-dihydroisoxazol-5-yl)phenyl)imino)dimethyl-λ^6-sulfanone] | ≥ 70 |
| CC(C)S(=N)(=O)c1cccc(Cl)c1C1CC(c2csc(C3CCN(C(=O)Cn4ccnc(C(F)(F)F)c4=O)CC3)n2)=NO1 (centres unmarked) [Compound 64] | ≥ 70 |
| CS(=N)(=O)c1cccc(C#N)c1C1CC(c2csc(C3CCN(C(=O)Cn4nc(C(F)F)cc4C(F)F)CC3)n2)=NO1 (centres unmarked) [Compound 164] | ≥ 70 |
| CS(=N)(=O)c1cccc(Cl)c1C1CC(c2csc(C3CCN(C(=O)Cn4cc(C(F)(F)F)ccc4=O)CC3)n2)=NO1 (centres unmarked) [Compound 169, 1-(2-(4-(4-(5-(2-chloro-6-(S-methylsulfonimidoyl)phenyl)-4,5-dihydroisoxazol-3-yl)thiazol-2-yl)piperidin-1-yl)-2-oxoethyl)-5-(trifluoromethyl)pyridin-2(1H)-one] | ≥ 70 |
| CN=S(C)(=O)c1cccc(Cl)c1C1CC(c2csc(C3CCN(C(=O)Cn4c(C)ccc(C(F)(F)F)c4=O)CC3)n2)=NO1 (centres unmarked) [Compound 174] | ≥ 70 |
